Test results: ChEMBL document CHEMBL3885881, “DrugMatrix”

Species on record: Rattus norvegicus
Test: DrugMatrix - Regimen: Daily Repeat
Type: toxicity, organism-based, Sprague-Dawley
Design: regimen Daily Repeat, gender Male, age 6-8 weeks
Details: in vivo, po, route oral GAVAGE; for ALANINE AMINOTRANSFERASE / ALKALINE PHOSPHATASE / ASPARTATE AMINOTRANSFERASE / BLOOD UREA NITROGEN / CARBON DIOXIDE / CHLORIDE / CHOLESTEROL / CREATINE PHOSPHOKINASE / CREATININE / GLUCOSE / LACTATE DEHYDROGENASE / LIPASE / PHOSPHORUS / POTASSIUM / SODIUM / TOTAL BILIRUBIN / URIC ACID / ALBUMIN / TOTAL PROTEIN: tissue Plasma
[1] = 0 mg/kg, 120 h, tissue Blood, dose level Control, time 5 day, vehicle 100 % WATER
[2] = 0 mg/kg, 120 h, dose level Control, time 5 day, vehicle 100 % SALINE
[3] = 0 mg/kg, 120 h, dose level Control, time 5 day, vehicle 100 % WATER
[4] = 300 mg/kg, 72 h, tissue Blood, dose level M2, time 3 day, vehicle 100 % SALINE
[5] = 300 mg/kg, 72 h, dose level M2, time 3 day, vehicle 100 % SALINE
[6] = 300 mg/kg, 120 h, tissue Blood, dose level M2, time 5 day, vehicle 100 % SALINE

Question: With `CCCc1nn(C)c2c(=O)[nH]c(-c3cc(S(=O)(=O)N4CCN(C)CC4)ccc3OCC)nc12` as the compound, how does the EOSINOPHIL [1] read?
Answer: 0%

Question: And the “ERYTHROCYTE COUNT” value [1]?
Answer: 5.49 x10E6/uL

Question: What about the HEMATOCRIT [1] of the same compound?
Answer: 34.63%

Question: What about the HEMOGLOBIN [1] of the same compound?
Answer: 13.72 G/DL

Question: What about the “LEUKOCYTE COUNT” value [1] of the same compound?
Answer: 11.32 x10E3/uL

Question: And the LYMPHOCYTE [1]?
Answer: 92.67%

Question: And the “MEAN CORPUSCULAR HEMOGLOBIN” value [1]?
Answer: 24.97 pg

Question: What about the “MEAN CORPUSCULAR HEMOGLOBIN CONCENTRATION” value [1] of the same compound?
Answer: 39.57 G/DL

Question: What about the “MEAN CORPUSCULAR VOLUME” value [1] of the same compound?
Answer: 63.05 fL

Question: And the MONOCYTE [1]?
Answer: 0.17%

Question: What about the NEUTROPHIL [1] of the same compound?
Answer: 7.17%

Question: And the “NUCLEATED RED BLOOD CELLS” value [1]?
Answer: 0.17 /100WBC

Question: What about the “PLATELET COUNT” value [1] of the same compound?
Answer: 802 x10E3/uL

Question: What about the “ALANINE AMINOTRANSFERASE” value [2] of the same compound?
Answer: 49.33 u/L

Question: What about the “ALKALINE PHOSPHATASE” value [2] of the same compound?
Answer: 300.33 u/L

Question: What about the “ASPARTATE AMINOTRANSFERASE” value [2] of the same compound?
Answer: 83.5 u/L

Question: And the “BLOOD UREA NITROGEN” value [2]?
Answer: 16 mg/dL

Question: And the “CARBON DIOXIDE” value [2]?
Answer: 29.67 mmol/L

Question: What about the CHLORIDE [2] of the same compound?
Answer: 100.5 MEQ/L

Question: What about the CHOLESTEROL [2] of the same compound?
Answer: 74.33 mg/dL

Question: And the “CREATINE PHOSPHOKINASE” value [2]?
Answer: 489.67 u/L

Question: What about the CREATININE [2] of the same compound?
Answer: 0.35 mg/dL

Question: What about the GLUCOSE [2] of the same compound?
Answer: 151 mg/dL

Question: And the “LACTATE DEHYDROGENASE” value [2]?
Answer: 133.67 u/L

Question: What about the LIPASE [2] of the same compound?
Answer: 11.17 u/L

Question: And the PHOSPHORUS [2]?
Answer: 10.88 mg/dL

Question: And the POTASSIUM [2]?
Answer: 5.5 MEQ/L

Question: What about the SODIUM [2] of the same compound?
Answer: 145.7 MEQ/L

Question: What about the “TOTAL BILIRUBIN” value [2] of the same compound?
Answer: 0.2 mg/dL

Question: What about the “URIC ACID” value [2] of the same compound?
Answer: 0.68 mg/dL

Question: And the “ALANINE AMINOTRANSFERASE” value [3]?
Answer: 50.5 u/L

Question: And the ALBUMIN [3]?
Answer: 4.07 G/DL

Question: What about the “ALKALINE PHOSPHATASE” value [3] of the same compound?
Answer: 336.83 u/L

Question: What about the “ASPARTATE AMINOTRANSFERASE” value [3] of the same compound?
Answer: 81 u/L

Question: And the “BLOOD UREA NITROGEN” value [3]?
Answer: 14.17 mg/dL

Question: What about the “CARBON DIOXIDE” value [3] of the same compound?
Answer: 32 mmol/L

Question: What about the CHLORIDE [3] of the same compound?
Answer: 98.33 MEQ/L

Question: What about the CHOLESTEROL [3] of the same compound?
Answer: 69.17 mg/dL

Question: And the “CREATINE PHOSPHOKINASE” value [3]?
Answer: 253.33 u/L

Question: And the CREATININE [3]?
Answer: 0.13 mg/dL

Question: And the GLUCOSE [3]?
Answer: 153.67 mg/dL

Question: What about the “LACTATE DEHYDROGENASE” value [3] of the same compound?
Answer: 157 u/L

Question: What about the LIPASE [3] of the same compound?
Answer: 9 u/L

Question: And the PHOSPHORUS [3]?
Answer: 10.78 mg/dL

Question: What about the POTASSIUM [3] of the same compound?
Answer: 6.11 MEQ/L

Question: What about the SODIUM [3] of the same compound?
Answer: 144.57 MEQ/L

Question: What about the “TOTAL BILIRUBIN” value [3] of the same compound?
Answer: 0.15 mg/dL

Question: And the “TOTAL PROTEIN” value [3]?
Answer: 6.05 G/DL

Question: And the “URIC ACID” value [3]?
Answer: 0.73 mg/dL

Question: And the “ABSOLUTE BASOPHIL” value [4]?
Answer: 0 CELLS/uL

Question: And the “ABSOLUTE EOSINOPHIL” value [4]?
Answer: 110.67 CELLS/uL

Question: And the “ABSOLUTE LYMPHOCYTE” value [4]?
Answer: 12663.33 CELLS/uL

Question: And the “ABSOLUTE MONOCYTE” value [4]?
Answer: 138 CELLS/uL

Question: And the “ABSOLUTE SEGMENTED NEUTROPHIL” value [4]?
Answer: 821.33 CELLS/uL

Question: What about the BASOPHIL [4] of the same compound?
Answer: 0%

Question: And the EOSINOPHIL [4]?
Answer: 0.67%

Question: And the “ERYTHROCYTE COUNT” value [4]?
Answer: 5.21 x10E6/uL

Question: And the HEMATOCRIT [4]?
Answer: 34.03%

Question: What about the HEMOGLOBIN [4] of the same compound?
Answer: 13.07 G/DL

Question: What about the “LEUKOCYTE COUNT” value [4] of the same compound?
Answer: 13.73 x10E3/uL

Question: And the LYMPHOCYTE [4]?
Answer: 92.67%

Question: What about the “MEAN CORPUSCULAR HEMOGLOBIN” value [4] of the same compound?
Answer: 25.03 pg

Question: And the “MEAN CORPUSCULAR HEMOGLOBIN CONCENTRATION” value [4]?
Answer: 38.43 G/DL

Question: And the “MEAN CORPUSCULAR VOLUME” value [4]?
Answer: 65.3 fL

Question: What about the MONOCYTE [4] of the same compound?
Answer: 0.67%

Question: What about the NEUTROPHIL [4] of the same compound?
Answer: 6%

Question: What about the “NUCLEATED RED BLOOD CELLS” value [4] of the same compound?
Answer: 0.33 /100WBC

Question: What about the “PLATELET COUNT” value [4] of the same compound?
Answer: 1148.67 x10E3/uL

Question: What about the “ALANINE AMINOTRANSFERASE” value [5] of the same compound?
Answer: 45.67 u/L

Question: And the ALBUMIN [5]?
Answer: 3.8 G/DL

Question: And the “ALKALINE PHOSPHATASE” value [5]?
Answer: 335 u/L

Question: And the “ASPARTATE AMINOTRANSFERASE” value [5]?
Answer: 71.67 u/L

Question: What about the “BLOOD UREA NITROGEN” value [5] of the same compound?
Answer: 13.33 mg/dL

Question: And the “CARBON DIOXIDE” value [5]?
Answer: 27.67 mmol/L

Question: What about the CHLORIDE [5] of the same compound?
Answer: 100 MEQ/L

Question: And the CHOLESTEROL [5]?
Answer: 70.67 mg/dL

Question: What about the “CREATINE PHOSPHOKINASE” value [5] of the same compound?
Answer: 284 u/L

Question: What about the CREATININE [5] of the same compound?
Answer: 0.2 mg/dL

Question: What about the GLUCOSE [5] of the same compound?
Answer: 154 mg/dL

Question: What about the “LACTATE DEHYDROGENASE” value [5] of the same compound?
Answer: 142.33 u/L

Question: What about the LIPASE [5] of the same compound?
Answer: 12.33 u/L

Question: And the PHOSPHORUS [5]?
Answer: 11.37 mg/dL

Question: What about the POTASSIUM [5] of the same compound?
Answer: 5.84 MEQ/L

Question: And the SODIUM [5]?
Answer: 144.75 MEQ/L

Question: And the “TOTAL BILIRUBIN” value [5]?
Answer: 0.13 mg/dL

Question: And the “TOTAL PROTEIN” value [5]?
Answer: 5.13 G/DL

Question: And the “URIC ACID” value [5]?
Answer: 0.97 mg/dL

Question: What about the “ABSOLUTE BASOPHIL” value [6] of the same compound?
Answer: 0 CELLS/uL

Question: And the “ABSOLUTE EOSINOPHIL” value [6]?
Answer: 0 CELLS/uL

Question: And the “ABSOLUTE LYMPHOCYTE” value [6]?
Answer: 10278 CELLS/uL

Question: What about the “ABSOLUTE MONOCYTE” value [6] of the same compound?
Answer: 0 CELLS/uL

Question: What about the “ABSOLUTE SEGMENTED NEUTROPHIL” value [6] of the same compound?
Answer: 955.33 CELLS/uL
